Patent publication US20090130064A1, “DIFFERENTIATION OF STEM CELLS AND STABILIZATION OF PHENOTYPICAL PROPERTIES OF PRIMARY CELLS” (priority 2004, published 2009)

What was measured:
[1] = test system: rat hepatocytes; assay: Lactate dehydrogenase index and morphology in cultured rat hepatocytes; assay type: cell-based; conditions: 50 μM
Procedure: The % LDH leakage of the cells was calculated as the result of the ratio: [100×LDH activity in supernatant]/[LDH activity in (supernatant+cells)]
Medium samples were collected at 72 hours of culture and analyzed for their albumin content by an enzyme-linked immunosorbent assay (ELISA) as described (Dunn et al. Biotechnol Prog 7: 237-245, 1991) Cell morphology was analyzed by light microscopy (×100). Pictures were taken using an Optiphot Nikon Phase Contrast microscope (Cetec, Brussels, Belgium).

[2] = test system: caspase-3, Bid and Bax; assay: Western blotting of caspase-3 activation, Bid and Bax in primary rat hepatocytes; assay type: cell-based
Source text: Male outbred Sprague-Dawley rats (200-300 g, Iffa Credo, Brussels, Belgium) were kept under controlled environmental conditions (12-hr light-dark cycle) and fed a standard diet (Animafabo A04, water ad libitum). Hepatocytes were isolated by a two-step collagenase perfusion as described (De Smet et al. In ‘Methods in Molecular Biology, Vol. 107: Cytochrome P450 Protocols’, Philips I R and Shephard E A, eds., pp 295-301, Humana Press, Totowa, 1998). Cell liability was >90% as determined by trypan blue exclusion. Cells (0.4×10^5 cells/cm^2) were plated in MEM/M199 (3:1), containing BSA (1 mg/ml), bovine insulin (10 μg/ml), L-glutamine (2 mM), FBS (10% v/v) and antibiotics (7.3 IU/ml benzyl penicillin, 50 μg/ml streptomycin sulphate, 50 μg/ml kanamycin monosulphstep and 10 μg/ml sodium ampicillin). Four hours after plating, serum-containing medium was removed and fresh serum-free medium was added to the cultures. Culture medium was refreshed daily. EGF (50 ng/ml) was added 4 hours after plating. A 100 mM stock solution of 4-Me2N-BAVAH was prepared in ethanol.
(§1) Total cell extracts were prepared as described previously (Papeleu et al. J Hepatol 39: 374-382, 2003) and proteins (25 or 50 μg per lane) were separated electrophoretically by SDS-PAGE and electroblotted onto nitrocellulose membranes (Amersham Pharmacia Biotech, Buckinghamshire, UK). Equal sample loading was verified by immersion of the membranes in Ponceau S. Unspecific binding sites were blocked with 5% skim milk/Tris-buffered saline. Incubations with primary antibodies were performed overnight at 4° C. under gentle shaking. Proteins were detected using the ECL detection system (Amersham Pharmacia Biotech, Buckinghamshire, UK) according to the manufacturer's recommendations.

[3] = test system: ERK1/2; assay: Western blotting of ERK1/2 phosphorylation in synchronized hepatocytes; assay type: cell-based, rat; conditions: 50 μM + EGF; initial 30 min
Procedure: as §1
Early cell cycle events can be triggered by distinct signalling pathways, activated by EGF, namely: the MEK/ERK, the mTOR/p70S6k, and the Pak1 pathways. Eventually, they all converge on cyclin D1 and play thus an essential role in the regulation of this critical cell cycle protein. […] This was done by culturing the hepatocytes in the absence of EGF for 48 hours, consequently stimulating them with EGF and exposing them to 50 μM 4-Me2N-BAVAH for 0.5, 1 and 3 hours before harvesting. Shortly after stimulation of synchronized primary hepatocytes with EGF, a rapid and sustained phosphorylation of ERK1/2 was observed (FIG. 20A). […]

[4] = test system: GSTA; assay: GSTA iso-enzyme activity in cultured rat hepatocytes; assay type: cell-based; conditions: TSA treatment
Source text: Hepatocytes were isolated from male Sprague-Dawley rats by a two-step collagenase perfusion as described (De Smet et al. In ‘Methods in Molecular Biology, Vol. 107: Cytochrome P450 Protocols’, Philips IR and Shephard E A, eds., p.p 295-301, Humana Press, Totowa, 1998). Hepatocytes were cultivated in monolayer cultures with Willam's E Medium (WE) for 7 days. […] The maintenance of differentiation characteristics was studied after 2, 4, and 7 days (D2, D4, D7) of culture.
In order to investigate Phase II biotransformation, total cytosolic glutathione S-transferase (GST) activity and activities of individual GSTA, GSTP, and GSTM iso-enzymes were measured using standard techniques known in the art. (i.e., measuring conjugation of reduced glutathione with 1-chloro-2,4-dinitrobenzene for total GST; measuring conjugation of reduced glutathione with 7-chloro-4-nitrobenzo-2-oxa-1,3-diazole for GSTA activity; measuring conjugation of reduced glutathione with ethacrynic acid for GSTP activity; and measuring conjugation of reduced glutathione with 1,2-dichloro-4-nitrobenzene for GSTM activity).

[5] = test system: rat BMSC; assay: Albumin ELISA, ALB secretion by rat BMSC-derived hepatocyte-like cells; assay type: cell-based
Procedure: Then, cells were cultivated in the presence of liver-specific (LSP) cytokines either as a cocktail [basal medium+10 ng/ml FGF-4 (fibroblast growth factor type 4), 20 ng/ml HGF (hepatic growth factor) (all from R&D), 1×ITS (insulin, transferrin, selenious acid) and 0.05 μM Dex (dexamethasone) (all from Sigma)] or separately (until day 3: basal medium+10 ng/ml FGF-4; from days 3 to 6: basal medium+20 ng/ml HGF; from day 6 on: basal medium+20 ng/ml HGF+1×ITS and 0.05 μM Dex). […] The culture media were changed every three days.
ALB concentrations secreted into the media were analysed by competitive enzyme-linked immunosorbent assay (ELISA) as described (Koebe et al. Int J Artif Organs 17: 95-106, 1994). The ALB levels were normalized with respect to the media used.

CN(C)c1ccc(C(=O)NCCCCC(=O)NO)cc1 [4-Me2N-BAVAH, 5-(4-dimethylaminobenzoyl)-aminovaleric acid hydroxamide]
cytotoxicity (LDH leakage, morphology) [1]: not due to cytotoxicity
expression of pro-apoptotic proteins Bid and Bax ([2]; 50 μM): decreased the expression
cleavage of pro-caspase-3 into active p18 fragments ([2]; 24 and 48 hours of culture): significantly lower
cleavage of pro-caspase-3 into active p18 fragments ([2]; after 72 hours of treatment): completely prevented
ERK1/2 phosphorylation [3]: increase in ERK1/2 phosphorylation

CC(C=CC(=O)NO)=CC(C)C(=O)c1ccc(N(C)C)cc1 (stereo not drawn) [TSA]
activity of GSTA iso-enzyme [4]: substantially unaffected
cell death ([5]; cocktail of LSP cytokines + TSA, from day 16 on): cell death had occurred
increase of the ALB secretion from day 15 to 17 ([5]; sequential cytokines + 1 μM TSA): 2.5 fold
ALB secretion ([5]; sequential cytokines + 1 μM TSA, from day 15 on): significantly upregulated
